Source: patent US9422293B2 (priority 2006, dated 2016)
Counter-ions that a name gives are not always drawn.

Target: rat TRPV1 (Rattus norvegicus (Rat), UniProt O35433)
Details: read-out: Rat IC50

rat TRPV1, sequence (O35433 whole entry): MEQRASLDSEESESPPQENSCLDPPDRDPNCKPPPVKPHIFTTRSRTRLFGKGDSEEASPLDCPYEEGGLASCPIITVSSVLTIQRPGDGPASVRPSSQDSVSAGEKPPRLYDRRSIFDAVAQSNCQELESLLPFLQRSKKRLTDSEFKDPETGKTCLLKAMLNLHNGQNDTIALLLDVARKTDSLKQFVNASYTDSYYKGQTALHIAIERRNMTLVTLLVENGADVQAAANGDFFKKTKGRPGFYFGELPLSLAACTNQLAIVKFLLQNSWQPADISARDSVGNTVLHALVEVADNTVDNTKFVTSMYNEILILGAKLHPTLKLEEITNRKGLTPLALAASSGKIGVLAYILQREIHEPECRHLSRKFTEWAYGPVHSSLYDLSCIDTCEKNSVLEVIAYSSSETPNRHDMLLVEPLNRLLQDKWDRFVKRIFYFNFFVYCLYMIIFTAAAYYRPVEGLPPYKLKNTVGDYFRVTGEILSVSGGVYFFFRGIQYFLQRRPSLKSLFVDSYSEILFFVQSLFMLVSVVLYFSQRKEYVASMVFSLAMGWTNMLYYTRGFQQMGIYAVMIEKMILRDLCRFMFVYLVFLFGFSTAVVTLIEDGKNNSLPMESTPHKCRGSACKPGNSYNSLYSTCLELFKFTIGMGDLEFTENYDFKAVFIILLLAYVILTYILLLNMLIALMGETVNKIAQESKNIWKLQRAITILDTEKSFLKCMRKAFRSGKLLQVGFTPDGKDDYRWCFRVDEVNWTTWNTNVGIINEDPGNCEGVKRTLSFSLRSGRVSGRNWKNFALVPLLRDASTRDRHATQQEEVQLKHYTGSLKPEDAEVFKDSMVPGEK

How did the IC50 turn out when `CN1CCC(C)(C)c2ccc(Nc3nc(N4CCCCC4)nc4c3CCN(c3ncccc3C(F)(F)F)CC4)cc21` [Example 164, [2-Piperidin-1-yl-7-(3-trifluoromethyl-pyridin-2-yl)-6,7,8,9-tetrahydro-5H-pyrimido[4,5-d]azepin-4-yl]-(1,4,4-trimethyl-1,2,3,4-tetrahydro-quinolin-7-yl)-amine hydrochloride salt] was run?
The IC50 was 20 nM.

How did the IC50 turn out when `CC(C)c1nc2c(c(Nc3ccc(N4CCCC4)nc3)n1)CCN(c1ncccc1C(F)(F)F)CC2` [Example 165, [2-Isopropyl-7-(3-trifluoromethyl-pyridin-2-yl)-6,7,8,9-tetrahydro-5H-pyrimido[4,5-d]azepin-4-yl]-(6-pyrrolidin-1-yl-pyridin-3-yl)-amine] was run?
The IC50 was 2250 nM.

With `Fc1cc(C(F)(F)F)ccc1Nc1nc(N2CCCCC2)nc2c1CCN(c1ncccc1C(F)(F)F)CC2` [Example 166] as the compound, how does the IC50 read?
The IC50 was 380 nM.

With `FC(F)(F)c1ccc(Nc2nc(-c3ccncc3)nc3c2CCN(c2ncccc2C(F)(F)F)CC3)cc1` [Example 167, 2-Pyridin-4-yl-N-[4-(trifluoromethyl)phenyl]-7-[3-(trifluoromethyl)pyridin-2-yl]-6,7,8,9-tetrahydro-5H-pyrimido[4,5-d]azepin-4-amine trifluoroacetic acid salt] as the compound, how does the IC50 read?
The IC50 was 370 nM.

How did the IC50 turn out when `CC(C)(C)c1ccc(Nc2nc(-c3ccncc3)nc3c2CCN(c2ncccc2C(F)(F)F)CC3)cc1` [Example 168, N-[4-(1,1-Dimethylethyl)phenyl]-2-pyridin-4-yl-7-[3-(trifluoromethyl)pyridin-2-yl]-6,7,8,9-tetrahydro-5H-pyrimido[4,5-d]azepin-4-amine trifluoroacetic acid salt] was run?
The IC50 was 30 nM.

Which IC50 does the source give for `FC(F)(F)c1ccc(Nc2nc(-c3ccncc3)nc3c2CCN(c2ncccc2C(F)(F)F)CC3)cc1Cl` [Example 169, N-[3-Chloro-4-(trifluoromethyl)phenyl]-2-pyridin-4-yl-7-[3-(trifluoromethyl)pyridin-2-yl]-6,7,8,9-tetrahydro-5H-pyrimido[4,5-d]azepin-4-amine] here?
Its IC50 is 1010 nM.

How did the IC50 turn out when `FC(F)(F)c1ccc(Nc2nc(-c3ccncc3)nc3c2CCN(c2ncccc2C(F)(F)F)CC3)cn1` [Example 170, 2-Pyridin-4-yl-7-[3-(trifluoromethyl)pyridin-2-yl]-N-[6-(trifluoromethyl)pyridin-3-yl]-6,7,8,9-tetrahydro-5H-pyrimido[4,5-d]azepin-4-amine trifluoroacetic acid salt] was run?
Its IC50 is 60 nM.

`CC(C)(C)c1ccc(Nc2nc(-c3ccccn3)nc3c2CCN(c2ncccc2C(F)(F)F)CC3)cc1` [Example 171, N-[4-(1,1-Dimethylethyl)phenyl]-2-pyridin-2-yl-7-[3-(trifluoromethyl)pyridin-2-yl]-6,7,8,9-tetrahydro-5H-pyrimido[4,5-d]azepin-4-amine trifluoroacetic acid salt] was tested. Which IC50 did it give?
The IC50 was 80 nM.

Which IC50 does the source give for `FC(F)(F)c1ccc(Nc2nc(-c3ccccn3)nc3c2CCN(c2ncccc2C(F)(F)F)CC3)cc1` [Example 172, 2-Pyridin-2-yl-N-[4-(trifluoromethyl)phenyl]-7-[3-(trifluoromethyl)pyridin-2-yl]-6,7,8,9-tetrahydro-5H-pyrimido[4,5-d]azepin-4-aminele 1 trifluoroacetic acid salt] here?
The IC50 was 130 nM.

For `FC(F)(F)c1ccc(Nc2nc(-c3ccccn3)nc3c2CCN(c2ncccc2C(F)(F)F)CC3)cc1Cl` [Example 173, N-[3-Chloro-4-(trifluoromethyl)phenyl]-2-pyridin-2-yl-7-[3-(trifluoromethyl)pyridin-2-yl]-6,7,8,9-tetrahydro-5H-pyrimido[4,5-d]azepin-4-amine trifluoroacetic acid salt], which IC50 is on record?
The IC50 was 210 nM.

`COC(=O)C(C)(C)c1ccc(Nc2nc(C(C)C)nc3c2CCN(c2ncccc2C(F)(F)F)CC3)cc1` [Example 174, Methyl 2-methyl-2-[4-({2-(1-methylethyl)-7-[3-(trifluoromethyl)pyridin-2-yl]-6,7,8,9-tetrahydro-5H-pyrimido[4,5-d]azepin-4-yl}amino)phenyl]propanoate] was tested. Which IC50 did it give?
Its IC50 is 2010 nM.

Which IC50 does the source give for `COC(=O)C(C)(C)c1ccc(Nc2nc(N3CCCCC3)nc3c2CCN(c2ncccc2C(F)(F)F)CC3)cc1` [Example 175, Methyl 2-methyl-2-[4-({2-piperidin-1-yl-7-[3-(trifluoromethyl)pyridin-2-yl]-6,7,8,9-tetrahydro-5H-pyrimido[4,5-d]azepin-4-yl}amino)phenyl]propanoate] here?
The IC50 was 80 nM.

For `FC(F)(F)c1ccc(Nc2nc(-c3cccnc3)nc3c2CCN(c2ncccc2C(F)(F)F)CC3)cc1` [Example 176, 2-Pyridin-3-yl-N-[4-(trifluoromethyl)phenyl]-7-[3-(trifluoromethyl)pyridin-2-yl]-6,7,8,9-tetrahydro-5H-pyrimido[4,5-d]azepin-4-amine trifluoroacetic acid salt], which IC50 is on record?
The IC50 was 810 nM.

How did the IC50 turn out when `CC(C)(O)c1ccc(Nc2nc(N3CCCCC3)nc3c2CCN(c2ncccc2C(F)(F)F)CC3)cc1` [Example 177, 2-[4-({2-Piperidin-1-yl-7-[3-(trifluoromethyl)pyridin-2-yl]-6,7,8,9-tetrahydro-5H-pyrimido[4,5-d]azepin-4-yl}amino)phenyl]propan-2-ol] was run?
The IC50 was 90 nM.

How did the IC50 turn out when `CC(C)c1nc2c(c(Nc3ccc(C(C)(C)O)cc3)n1)CCN(c1ncccc1C(F)(F)F)CC2` [Example 178, 2-[4-({2-(1-Methylethyl)-7-[3-(trifluoromethyl)pyridin-2-yl]-6,7,8,9-tetrahydro-5H-pyrimido[4,5-d]azepin-4-yl}amino)phenyl]propan-2-ol] was run?
Its IC50 is 110 nM.

With `CC(C)c1nc2c(c(Nc3ccc(C(C)(O)C(F)(F)F)cc3)n1)CCN(c1ncccc1C(F)(F)F)CC2` (centres unmarked) [Example 179, 1,1,1-Trifluoro-2-[4-({2-(1-methylethyl)-7-[3-(trifluoromethyl)pyridin-2-yl]-6,7,8,9-tetrahydro-5H-pyrimido[4,5-d]azepin-4-yl}amino)phenyl]propan-2-ol] as the compound, how does the IC50 read?
The IC50 was 1340 nM.

How did the IC50 turn out when `CC(O)(c1ccc(Nc2nc(N3CCCCC3)nc3c2CCN(c2ncccc2C(F)(F)F)CC3)cc1)C(F)(F)F` (centres unmarked) [Example 180, 1,1,1-Trifluoro-2-[4-({2-piperidin-1-yl-7-[3-(trifluoromethyl)pyridin-2-yl]-6,7,8,9-tetrahydro-5H-pyrimido[4,5-d]azepin-4-yl}amino)phenyl]propan-2-ol] was run?
The IC50 was > 6670 nM.

How did the IC50 turn out when `CC(C)c1nc2c(c(Nc3ccc(C(C)(C)CO)cc3)n1)CCN(c1ncccc1C(F)(F)F)CC2` [Example 181, 2-Methyl-2-[4-({2-(1-methylethyl)-7-[3-(trifluoromethyl)pyridin-2-yl]-6,7,8,9-tetrahydro-5H-pyrimido[4,5-d]azepin-4-yl}amino)phenyl]propan-1-ol] was run?
The IC50 was 820 nM.

For `CC(C)c1nc2c(c(Nc3ccc(C(C)O)cc3)n1)CCN(c1ncccc1C(F)(F)F)CC2` (centres unmarked) [Example 182, 1-[4-({2-(1-Methylethyl)-7-[3-(trifluoromethyl)pyridin-2-yl]-6,7,8,9-tetrahydro-5H-pyrimido[4,5-d]azepin-4-yl}amino)phenyl]ethanol], which IC50 is on record?
Its IC50 is 790 nM.

With `CC(C)c1nc2c(c(Nc3ccc(C(O)C(F)(F)F)cc3)n1)CCN(c1ncccc1C(F)(F)F)CC2` (centres unmarked) [Example 183, 2,2,2-Trifluoro-1-[4-({2-(1-methylethyl)-7-[3-(trifluoromethyl)pyridin-2-yl]-6,7,8,9-tetrahydro-5H-pyrimido[4,5-d]azepin-4-yl}amino)phenyl]ethanol] as the compound, how does the IC50 read?
The IC50 was 2370 nM.
